Assays:
Assay in all cases: Hematological cell line viability/apoptosis flow cytometry assay
Format in all cases: cell-based
TMD8 cell line = conditions: TMD8 (DLBCL ABC); 120 h
In short: (§1)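 384-well format; serial dilutions 0.00015–10 μM, DMSO 0.1% v/v, 5 days. Annexin V/DRAQ7 flow readout. Viability normalized to DMSO → IC50, Emax, AUC; apoptosis (early + late) vs DMSO → EC50, Ymax, AUC.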

NU-DUL-1 cell line = conditions: NU-DUL-1 (DLBCL ABC); 120 h
In short: as §1

RIVA cell line = conditions: RIVA (DLBCL ABC), 120 h
In short: as §1

ULA cell line = conditions: ULA (DLBCL), 120 h
In short: as §1

L-428 cell line = conditions: L-428 (HL), 120 h
In short: as §1

OCI-LY7 cell line = conditions: OCI-LY7 (DLBCL GCB); 120 h
In short: as §1

WA-C3-CD5+ cell line = conditions: WA-C3-CD5+ (CLL), 120 h
In short: as §1

Mec1 cell line = conditions: Mec1 (CLL), 120 h
In short: as §1

OCI-LY10 cell line = conditions: OCI-LY10 (DLBCL ABC); 120 h
In short: as §1

Toledo cell line = conditions: Toledo (DLBCL GCB); 120 h
In short: as §1

RL cell line = conditions: RL (FL); 120 h
In short: as §1

HNT-34 cell line = conditions: HNT-34 (AML), 120 h
In short: as §1

WSU-DLCL cell line = conditions: WSU-DLCL (DLBCL GCB), 120 h
In short: as §1

[1] = Homo sapiens, read-out: % Viable Cells IC50

For `O=C1CC[C@H](N2C(=O)c3cccc(NCc4ccc(CN5CC(N6CCOCC6)C5)cc4F)c3C2=O)C(=O)N1` [Compound 1, (S)-2-(2,6-dioxopiperidin-3-yl)-4-((2-fluoro-4-((3-morpholinoazetidin-1-yl)methyl)benzyl)amino)isoindoline-1,3-dione], the “% Viable Cells AUC” value (TMD8 cell line) was 4.187, the “% Viable Cells Emax” value (TMD8 cell line) was 0.245% and the “Apoptosis AUC” value (TMD8 cell line) was 963.3. The “Apoptosis Ymax” value (TMD8 cell line) was 97.2%, the “% Viable Cells AUC” value (NU-DUL-1 cell line) was 22.12 and the “% Viable Cells Emax” value (NU-DUL-1 cell line) was 0.0228%. For the same molecule, the “Apoptosis AUC” value (NU-DUL-1 cell line) was 962.8, the “Apoptosis Ymax” value (NU-DUL-1 cell line) was 99.84% and the “% Viable Cells AUC” value (RIVA cell line) was 452.6. The “% Viable Cells Emax” value (RIVA cell line) was 36.65%, the “Apoptosis AUC” value (RIVA cell line) was 242.8 and the “Apoptosis Ymax” value (RIVA cell line) was 27.92%. For the same molecule, the EC50 (RIVA cell line) was 17.7 nM, the IC50 (RIVA cell line; read-out: % Viable Cells IC50) was 114 nM and the “% Viable Cells AUC” value (ULA cell line) was 0.5518. The “% Viable Cells Emax” value (ULA cell line) was 0.02523%, the “Apoptosis AUC” value (ULA cell line) was 995.3 and the “Apoptosis Ymax” value (ULA cell line) was 99.76%. It also gave an EC50 (ULA cell line) of 1.79 nM, an IC50 (ULA cell line; read-out: % Viable Cells IC50) of 0.99 nM and an EC50 (L-428 cell line; Homo sapiens) of 64500 nM. For the same molecule, the IC50 (L-428 cell line; [1]) was 252 nM, the “% Viable Cells AUC” value (L-428 cell line) was 450.4 and the “% Viable Cells Emax” value (L-428 cell line) was 47.3%. The “Apoptosis AUC” value (L-428 cell line) was 63.35, the “Apoptosis Ymax” value (L-428 cell line) was 27.50% and the “% Viable Cells AUC” value (OCI-LY7 cell line) was 48.18. For the same molecule, the “% Viable Cells Emax” value (OCI-LY7 cell line) was 4.191%, the “Apoptosis AUC” value (OCI-LY7 cell line) was 682.7 and the “Apoptosis Ymax” value (OCI-LY7 cell line) was 71.18%. The “% Viable Cells AUC” value (WA-C3-CD5+ cell line) was 474.8, the “% Viable Cells Emax” value (WA-C3-CD5+ cell line) was 44.2% and the “Apoptosis AUC” value (WA-C3-CD5+ cell line) was 162.9. The “Apoptosis Ymax” value (WA-C3-CD5+ cell line) was 17.47%, the EC50 (WA-C3-CD5+ cell line) was 52.4 nM and the IC50 (WA-C3-CD5+ cell line; read-out: % Viable Cells IC50) was 530 nM. The EC50 (Mec1 cell line; Homo sapiens) was 210 nM, the IC50 (Mec1 cell line; [1]) was > 10000 nM and the “% Viable Cells AUC” value (Mec1 cell line) was 866.5. The “% Viable Cells Emax” value (Mec1 cell line) was 83.45%, the “Apoptosis AUC” value (Mec1 cell line) was 302.4 and the “Apoptosis Ymax” value (Mec1 cell line) was 36.61%. The “% Viable Cells AUC” value (OCI-LY10 cell line) was 125.3, the “% Viable Cells Emax” value (OCI-LY10 cell line) was 10.16% and the “Apoptosis AUC” value (OCI-LY10 cell line) was 188.9. The “Apoptosis Ymax” value (OCI-LY10 cell line) was 22.31%, the “% Viable Cells AUC” value (Toledo cell line) was 112.3 and the “% Viable Cells Emax” value (Toledo cell line) was 8.56%. For the same molecule, the “Apoptosis AUC” value (Toledo cell line) was 231.4, the “Apoptosis Ymax” value (Toledo cell line) was 27.5% and the “% Viable Cells AUC” value (RL cell line) was 234.8. The “% Viable Cells Emax” value (RL cell line) was 21.55%, the “Apoptosis AUC” value (RL cell line) was 115.9 and the “Apoptosis Ymax” value (RL cell line) was 13.93%. The “% Viable Cells AUC” value (HNT-34 cell line) was 353, the “% Viable Cells Emax” value (HNT-34 cell line) was 20.47% and the “Apoptosis AUC” value (HNT-34 cell line) was 130.1. For the same molecule, the “Apoptosis Ymax” value (HNT-34 cell line) was 44.33%, the EC50 (HNT-34 cell line) was 876 nM and the IC50 (HNT-34 cell line; read-out: % Viable Cells IC50) was 26 nM. The “% Viable Cells AUC” value (WSU-DLCL cell line) was 341.9, the “% Viable Cells Emax” value (WSU-DLCL cell line) was 27.83% and the “Apoptosis AUC” value (WSU-DLCL cell line) was 565.1. The “Apoptosis Ymax” value (WSU-DLCL cell line) was 59.91%, the EC50 (WSU-DLCL cell line) was 18 nM and the IC50 (WSU-DLCL cell line; read-out: % Viable Cells IC50) was 142 nM.

Reference: patent publication US11578056B2, “Solid forms comprising (S)-2-(2,6-dioxopiperidin-3-yl)-4-((2-fluoro-4-((3-morpholinoazetidin-1-yl)methyl)benzyl)amino)isoindoline-1,3-dione and salts thereof, and compositions comprising and methods of using the same” (Celgene Corporation, priority 2019, dated 2023)
